# Results published in patent publication US20070264363A1, “Molluscicidal and Anti-Barnacle Compounds” (priority 2003, published 2007).
# Values joined by “and” are separate entries in the source; they are usually repeats but may differ in a detail not shown here. Identical values can stand only once.
# Legend:
# D. reticulatum slugs [1] = assay: Leaf disc assay (no choice-feeding bioassay on lettuce leaf discs); format: in vivo; conditions: for amount of lettuce leaf consumed was reduced: solubilisation in aqueous tween 80 (0.5%)
# Method: Adult D. reticulatum were collected from nearby fields and maintained in plastic trays lined with moist, unbleached, absorbent paper They were housed in the dark and at a constant temperature of 10°±1° C. Slugs were regularly fed on a mixture of iceberg lettuce and carrots. Slugs, with a weight 300-600 mg, were pre-starved for 24 hours and maintained at a constant temperature of 15°±1° C. prior to testing.
# The technique described here is a no choice-feeding bioassay using circular discs prepared from lettuce leaves. Selected terpenes were tested against D. reticulatum slugs and evaluated for their repellent/antifeedant and molluscicidal properties.
# Lettuce leaf discs (1.4 cm^2) were placed in petri dishes lined with water saturated filter paper ([…] diameter). A known concentration of terpene oil, solubilised in the appropriate media, was prepared and a fixed volume (50 μl) added by pipette, onto individual lettuce leaf discs. Any residual solvent was left to evaporate for a minimum time of 30 iminutes.
# Slugs, previously starved for 24 hours, were introduced to the petri dishes and placed in an environmentally controlled chamber (15° C.: 12 hours day, 15° C.: 12 hours night) for 24 hours.
# The amount of leaf disc damaged (eaten) was quantified by comparing digital photographs of treated leaf discs with untreated (control) leaf discs, using photographic computer software. The experiment was replicated 20 times for each terpene.
# To compare the change in feeding behaviour for different treatments, the leaf damage data was corrected for the control, using the repellency index equation below. [formula]
# The antifeedant effect of various media was determined by comparison to untreated leaf discs. A positive R I value indicates a reduction in feeding (antifeedant/repellent) whereas a negative value indicates an increase in feeding behaviour (phagostimulant). Corrections for mortality were done the Abbotts formula (Abbott, 1925). [formula] Bioassay Assay Results: Leaf Disc Assay
# [2] = tested on: cyprid larvae of the marine barnacle Balanus amphitrite; assay: Barnacle settlement in multi-welled plates, extract evaporated to dryness; format: in vivo; conditions: top two doses, 24 hrs
# Method: The settlement of the barnacle Balanus Amphitrite was tested in multi-welled plates in the laboratory. Myrrh and scented Myrrh were extracted in ethanol and 2 ml aliquots from a range of concentrations (50% v/v to 1.5% v/v) were evaporated to dryness in each well of a multi welled plate. Ethanolic trans-β-Ocimene a component of scented Myrrh was also applied in the manner over a range of concentrations (50% v/v to 1.5-% v/v). After evaporation saltwater containing active cyprid larvae was introduced to each well and their settlement and activity measured after 24 hrs.
# D. reticulatum = assay: Spray trial, lettuce leaves on peat soil (Example 7); format: in vivo, Deroceras reticulatum; conditions: 3% in water, 24 hours
# Method: To evaluate the efficacy of trans-β-ocimene emulsions using peat substrates lettuce leaves were sprayed with 12 ml of an aqueous ocimene emulsion (3%). Once sprayed the leaves were placed in plastic trays containing peat soil and left for 30 minutes to remove the excess liquid drops. After this time period two adult slugs, previously starved for 24 hours, were added to each plastic tray and left for 24 hours.
# A control (water) was treated similarly. Four replicates were prepared for each treatment.
# Repellency indices were calculated as described for the leaf disc bioassay.
# garden snail H. aspersa [3] = assay: Spray trial with ocimene and bisabolol formulations (Example 8); format: in vivo; conditions: for Repellency Index: RI relative to water
# Source text: Example 7 was repeated wherein the lettuce leaves were sprayed with 5% trans-β-ocimene in Tween 20 and the anti-feedant properties tested on the garden snail H. aspersa.
# 5 and 10% Ocimene and Bisabolol (H. aspersa)
# D. reticulatum slugs [4] = assay: Spray trial (controlled temperature units) monitored over 7 days (Example 9); format: in vivo; conditions: for % Leaf Damage: 5% oil emulsion spray; for % Mortality: 5% spray
# Source text: The same spray trial as in the previous examples was repeated and leaf damage monitored for 7 days.
# Spray Trial (Controlled Temperature Units) Monitoring Leaf Damage Over 7 Days (D. reticulatum)
# Spray Trial (Controlled Temperature Units) Monitoring Mortality Over 7 Days (D. reticitlatum)
# [5] = tested on: Balanus amphitrite day 3 cyprids; assay: Barnacle settlement repeated, cyprids incubated in 10^−5-10^−9M; format: in vivo; conditions: after 24 hr
# Method: The barnacle settlement experiments were repeated; however, this time 10 Balanus amphitrite day 3 cyprids were incubated in varying concentrations (10^−5-10^−9M) of trans-β-ocimene at 28° C. in dark conditions. Each concentration was replicated four times, with a control run. The number of cyprids that had settled, still active, floating on the surface meniscus or dead was counted after 24 and 48 hr incubations. Results are expressed as a % of the total cyprid number in each well minus floating cyprids, as these were unable to settle. Values are expressed as mean ±SEM. The amount of settlement at each concentration was compared to the control settlement using an unpaired t-test.
# [6] = tested on: field slug, D. reticulatum; conditions: in vivo; cited from earlier work
# eggs of D. reticulatum = conditions: applied at a rate of 4.6 kg/ha; cited from earlier work
# garden snail H. aspersa [7] = assay: Spray trial with ocimene and bisabolol formulations (Example 8); format: in vivo; conditions: 1% in aq. Tween 20 (1%)
smiles,measurement,setting,value
C=C/C(C)=C/CC=C(C)C [trans-β-Ocimene],Corrected Mortality,D. reticulatum slugs [1]; 0.1% in ethanol,0%
same,Repellency Index,D. reticulatum slugs [1]; 0.1% in ethanol,5%
same,Corrected Mortality,D. reticulatum slugs [1]; 0.22% in Aq. Dmso (10%),0%
same,Repellency Index,D. reticulatum slugs [1]; 0.22% in Aq. Dmso (10%),2%
same,Corrected Mortality,D. reticulatum slugs [1]; 0.45% in Aq. Dmso (2.5%),20%
same,Repellency Index,D. reticulatum slugs [1]; 0.45% in Aq. Dmso (2.5%),91%
same,Corrected Mortality,D. reticulatum slugs [1]; 0.45% in Aq. Dmso (10%),70%
same,Repellency Index,D. reticulatum slugs [1]; 0.45% in Aq. Dmso (10%),90%
same,Corrected Mortality,D. reticulatum slugs [1]; 0.45% in Aq. Tween 80 (0.2%),20%
same,Repellency Index,D. reticulatum slugs [1]; 0.45% in Aq. Tween 80 (0.2%),91%
same,Corrected Mortality,D. reticulatum slugs [1]; 0.45% in Aq. Tween 80 (0.5%),10%
same,Repellency Index,D. reticulatum slugs [1]; 0.45% in Aq. Tween 80 (0.5%),73%
same,Corrected Mortality,D. reticulatum slugs [1]; 0.45% in Water,90%
same,Repellency Index,D. reticulatum slugs [1]; 0.45% in Water,100%
same,Corrected Mortality,"D. reticulatum slugs [1]; 0.45% in ethanol, 24 hours",0%
same,Repellency Index,"D. reticulatum slugs [1]; 0.45% in ethanol, 24 hours",35%
same,Corrected Mortality,D. reticulatum slugs [1]; 0.90% in Aq. Dmso (10%),75%
same,Repellency Index,D. reticulatum slugs [1]; 0.90% in Aq. Dmso (10%),92%
same,Corrected Mortality,D. reticulatum slugs [1]; 0.9% in ethanol,5%
same,Repellency Index,D. reticulatum slugs [1]; 0.9% in ethanol,95%
same,Corrected Mortality,D. reticulatum slugs [1]; 2.7% in Aq. Dmso (10%),95%
same,Repellency Index,D. reticulatum slugs [1]; 2.7% in Aq. Dmso (10%),100%
same,mortalities,"D. reticulatum slugs [1]; Examples 2 and 4, aqueous tween 80",Low
same,slug mortality,"D. reticulatum slugs [1]; pure oil, immediately on contact",100%
same,amount of lettuce leaf consumed was reduced,D. reticulatum slugs [1],73%
same,state of larvae,[2],all floating on the surface but were ‘mutated’
same,Leaf damage,"D. reticulatum; 12 ml spray, single replicates 1-4",18.69% and 9.33% and 0.00% and 0.99%
same,Repellency Indices,D. reticulatum,76.5%
same,Mean Leaf damage,D. reticulatum; four replicates,7.25%
same,Repellency Indices,D. reticulatum; listed as trans-β-ocimene,77%
same,mortality,D. reticulatum; peat containers,No mortality
same,% Leaf Damage ± SEM,garden snail H. aspersa [3]; 5% in Water,79 ± 9 NS %
same,% Mortality ± SEM,garden snail H. aspersa [3]; 5% in Water,0%
same,Repellency Index,garden snail H. aspersa [3]; 5% in Water,21
same,% Leaf Damage ± SEM,garden snail H. aspersa [3]; 5% in aq. Synperonic (0.025%),2 ± 2 %
same,% Mortality ± SEM,garden snail H. aspersa [3]; 5% in aq. Synperonic (0.025%),17 ± 7 %
same,Repellency Index,garden snail H. aspersa [3]; 5% in aq. Synperonic (0.025%),98
same,% Leaf Damage ± SEM,garden snail H. aspersa [3]; 5% in aq. Synperonic (5%),0 ± 0 %
same,% Mortality ± SEM,garden snail H. aspersa [3]; 5% in aq. Synperonic (5%),0%
same,Repellency Index,garden snail H. aspersa [3]; 5% in aq. Synperonic (5%),100
same,% Leaf Damage ± SEM,garden snail H. aspersa [3]; 5% in aq. Tween 20 (5%),0 ± 0 %
same,% Mortality ± SEM,garden snail H. aspersa [3]; 5% in aq. Tween 20 (5%),0%
same,Repellency Index,garden snail H. aspersa [3]; 5% in aq. Tween 20 (5%),100
same,% Leaf Damage ± SEM,garden snail H. aspersa [3]; 10% in Water,0 ± 0 %
same,% Mortality ± SEM,garden snail H. aspersa [3]; 10% in Water,5%
same,Repellency Index,garden snail H. aspersa [3]; 10% in Water,100
same,% Leaf Damage,D. reticulatum slugs [4]; Day 1,0%
same,% Leaf Damage,D. reticulatum slugs [4]; Day 2,0%
same,% Leaf Damage,D. reticulatum slugs [4]; Day 3,0%
same,% Leaf Damage,D. reticulatum slugs [4]; Day 4,0%
same,% Leaf Damage,D. reticulatum slugs [4]; Day 5,0%
same,% Leaf Damage,D. reticulatum slugs [4]; Day 6,0%
same,% Leaf Damage,D. reticulatum slugs [4]; Day 7,0%
same,% Mortality,D. reticulatum slugs [4]; Day 1,67%
same,% Mortality,D. reticulatum slugs [4]; Day 2,80 ± 12%
same,% Mortality,D. reticulatum slugs [4]; Day 3,87 ± 7%
same,% Mortality,D. reticulatum slugs [4]; Day 4,87 ± 7%
same,% Mortality,D. reticulatum slugs [4]; Day 5,93 ± 7%
same,% Mortality,D. reticulatum slugs [4]; Day 6,93 ± 7%
same,% Mortality,D. reticulatum slugs [4]; Day 7,93 ± 7%
same,inhibition of settlement,"[5]; 10^−5-10^−9M, 28° C., dark",inhibition of settlement in a reverse dose-dependent manner
same,settlement compared to the control (unpaired t-test),[5]; lowest concentration (10^−9M),statistically different from the control
"CC(C)=CCC/C(C)=C/CC/C(C)=C/CO [trans, trans farnesol]",Repellency Index,D. reticulatum slugs [1]; 0.96% in ethanol,96%
same,Corrected Mortality,D. reticulatum slugs [1]; in vivo,0%
CC1=CCC(C(C)(C)O)CC1 (stereo not drawn) [α-terpineol],mollusc repellent activity,[6],effective mollusc repellents
C=C1CC/C=C(\C)CC[C@@H]2[C@@H]1CC2(C)C [Carophyllene],Corrected Mortality,D. reticulatum slugs [1]; 0.96% in ethanol,15%
same,Repellency Index,D. reticulatum slugs [1]; 0.96% in ethanol,40%
CC1CCC(C(C)C)C(O)C1 (stereo not shown) [menthol],mollusc repellent activity,[6],effective mollusc repellents
same,molluscicidal activity,[6],potent molluscicides
"C=C(C)C1CC=C(C)C(=O)C1 (stereo not shown) [Carvone, carvone]",molluscicidal activity,[6],potent molluscicides
same,time to induce death,eggs of D. reticulatum,2 days
CC(C)[C@@H]1CC[C@@H](C)CC1=O [menthone],molluscicidal activity,[6],potent molluscicides
C=C/C(C)=C/C/C=C(\C)CCC=C(C)C [α-farnesene],Repellency Index,D. reticulatum slugs [1]; 0.7% in ethanol,60%
same,Repellency Index,D. reticulatum slugs [1]; 2.7% in ethanol,97%
CC(C)=CCC/C(C)=C1/CC=C(C)CC1 [γ-bisabolene],Corrected Mortality,D. reticulatum slugs [1]; 0.7% in ethanol,0%
same,Repellency Index,D. reticulatum slugs [1]; 0.7% in ethanol,70%
C=C/C(C)=C\CC=C(C)C [cis-β-Ocimene],Repellency Index,D. reticulatum slugs [1]; 0.35% in Aq. Tween 80 (0.2%),84%
same,Corrected Mortality,D. reticulatum slugs [1]; in vivo,15%
same,mortalities,D. reticulatum slugs [1]; in vivo,Low
same,amount of lettuce leaf consumed was reduced,D. reticulatum slugs [1],84%
"CC(C)=CCC/C(C)=C/CC/C(C)=C\CO [cis, trans farnesol]",Corrected Mortality,D. reticulatum slugs [1]; 0.95% in ethanol,0%
same,Repellency Index,D. reticulatum slugs [1]; 0.95% in ethanol,77%
C=C1/C=C/C(C(C)C)CC/C(C)=C/CC1 (stereo not shown) [Germacrene D],Corrected Mortality,D. reticulatum slugs [1]; 0.4% in ethanol,0%
same,Repellency Index,D. reticulatum slugs [1]; 0.4% in ethanol,77%
CC(C)=CCC[C@](C)(O)C1CC=C(C)CC1 (stereo partly drawn) [α-bisabolol],Repellency Index,garden snail H. aspersa [3]; 1% in aq. Tween 20 (1%),90
same,% Mortality ± SEM,garden snail H. aspersa [3]; in vivo,0%
same,% Leaf Damage ± SEM,garden snail H. aspersa [7],10 ± 0%
Cc1ccc(C(C)C)c(O)c1 [thymol],mollusc repellent activity,[6],effective mollusc repellents
